According to patent US7183075B2, “Purified and isolated potassium-chloride cotransporter nucleic acids and polypeptides and therapeutic and screening methods using same” (Vanderbilt University, priority 2000, dated 2007):
Like-named read-outs stand apart in the source and are kept apart here.

Target: T1, rabKCC1 (Oryctolagus cuniculus, UniProt Q28677)
T1 construct: a full-length rabbit KCC1 cDNA was subcloned into pGEMHE; expressed in transfected cells; host or cells: Xenopus laevis oocytes injected with cRNA
T1 sequence (Q28677 1-1085): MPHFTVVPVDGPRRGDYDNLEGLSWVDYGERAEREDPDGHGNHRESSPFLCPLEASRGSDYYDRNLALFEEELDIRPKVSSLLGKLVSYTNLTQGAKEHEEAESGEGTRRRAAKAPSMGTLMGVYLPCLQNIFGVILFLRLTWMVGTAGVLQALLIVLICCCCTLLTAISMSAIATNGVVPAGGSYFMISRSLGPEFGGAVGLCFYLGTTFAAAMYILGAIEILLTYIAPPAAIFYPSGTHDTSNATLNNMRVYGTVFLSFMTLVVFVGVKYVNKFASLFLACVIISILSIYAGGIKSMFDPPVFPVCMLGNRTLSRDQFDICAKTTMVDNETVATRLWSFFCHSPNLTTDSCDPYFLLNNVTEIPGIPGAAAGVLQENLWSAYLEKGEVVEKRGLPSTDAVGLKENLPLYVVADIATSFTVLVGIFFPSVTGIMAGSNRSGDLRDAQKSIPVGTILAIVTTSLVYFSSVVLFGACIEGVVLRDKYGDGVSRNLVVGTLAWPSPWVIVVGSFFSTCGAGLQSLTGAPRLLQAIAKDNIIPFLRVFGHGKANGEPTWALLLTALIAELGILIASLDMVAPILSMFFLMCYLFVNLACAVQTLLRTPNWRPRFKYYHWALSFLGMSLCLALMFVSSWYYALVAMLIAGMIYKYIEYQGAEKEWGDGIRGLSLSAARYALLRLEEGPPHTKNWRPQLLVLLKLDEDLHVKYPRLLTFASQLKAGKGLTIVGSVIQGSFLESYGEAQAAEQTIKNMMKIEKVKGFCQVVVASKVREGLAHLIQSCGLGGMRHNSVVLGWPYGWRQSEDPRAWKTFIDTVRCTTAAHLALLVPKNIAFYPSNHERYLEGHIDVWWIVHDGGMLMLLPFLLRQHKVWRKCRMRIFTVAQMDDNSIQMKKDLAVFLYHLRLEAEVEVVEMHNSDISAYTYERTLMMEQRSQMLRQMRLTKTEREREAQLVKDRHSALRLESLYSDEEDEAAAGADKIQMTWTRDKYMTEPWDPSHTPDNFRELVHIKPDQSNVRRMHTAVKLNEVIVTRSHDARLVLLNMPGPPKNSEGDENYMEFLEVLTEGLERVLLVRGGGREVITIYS
Assay: 86Rb+ uptake (K+-Cl- cotransport) in Xenopus oocytes injected with rabKCC1 cRNA
Format: cell-based, rabbit
Conditions: for KCC1 function remaining: 100 μM DIDS; for KCC1 function (86Rb+ uptake, % of control): 2 mM diuretic; for effect on activation of KCC1 by cell swelling: calyculin A 100 nM, okadaic acid 1 nM, cypermethrin 100 pM
Experimental: On the next day, defolliculated stage V–VI oocytes were injected with 50 nl of water or a solution containing cRNA at a concentration of 0.25–0.5 μg/μl (25 ng/oocyte). […] The incubation medium was changed every 24 hours.
For functional comparison with mKCC4, a full-length rabbit KCC1 cDNA was subcloned into pGEMHE. […] To prepare a template for cRNA, the rabbit KCC1 and […] cDNAs were linearized at the 3′-end using NheI, and cRNA was transcribed in vitro using the T7 RNA polymerase and the mMESSAGE mMACHINE kit (Ambion, Inc. of Austin, Tex.). Transcription product integrity was confirmed on agarose gels, and concentration was determined by absorbance reading at 260 nm (DU 640 available from Beckman of Fullerton, Calif.).
K^+—Cl^− cotransport was assessed by measuring tracer ^86Rb^+ uptake (NEN® Life Science Products of Boston, Mass.) in experimental groups of at least 15 oocytes. […] Isotonic conditions were generated by supplementing the same solutions with 3.5 g/100 ml sucrose to reach isosmolar conditions for oocytes (˜210 mOsm/kg). Ouabain was added to prevent ^86Rb^+ uptake via the Na^+—K^+-ATPase.
All uptake assays were performed at 32° C. At the end of the uptake period, oocytes were washed five times in ice-cold uptake solution without isotope to remove extracellular fluid tracer. Oocytes were dissolved in 10% SDS, and tracer activity was determined for each oocyte by β-scintillation counting.
To determine the ion transport kinetics of KCC4 and KCC1, ^86Rb^+ uptake experiments were performed in variable concentrations of K^+ and Cl^−. The sensitivity for several inhibitors was assessed by exposing groups of oocytes to the inhibitors at concentrations varying from […] to 2 mM. For these experiments, the desired concentration of the inhibitor was present during both the incubation and uptake periods, except when noted.

[1] = KCC1, counterion fixed at 50 mM, hypotonic
[2] = KCC1, counterion fixed at 50 mM, hypotonic, read-out: apparent Km for extracellular ion
[3] = 2 mM extracellular K+, hypotonic
[4] = 50 mM extracellular K+, hypotonic

`[Ba+2].[Cl-].[Cl-]` [BaCl2] was tested, and the “KCC1 function, % of control” value (10 mM BaCl2 in hypotonic uptake medium) was 79±4.2%.

`Cl` [Chloride] was tested, and the Hill coefficient (KCC1) was 1.3±0.5, the “apparent Vmax for extracellular ion” value [1] was 14,930±2,822 pmol×oocyte^−1×hour^−1 and the Km [2] was 17.2 ± 8.3 mM. The Km (KCC1, read-out: Chloride Km) was 17.2 mM.

`O=S(=O)(O)c1cc(N=C=S)ccc1C=Cc1ccc(N=C=S)cc1S(=O)(=O)O` [DIDS] gave a KCC1 function remaining [3] of 85±6% and a KCC1 function remaining [4] of 13±2%.

For `CCCCC1(C2CCCC2)Cc2cc(OCC(=O)O)c(Cl)c(Cl)c2C1=O` (centres unmarked) [DIOA], the “effect on KCC1-induced 86Rb+ uptake” value (100 μM DIOA, hypotonic) was “inhibition”.

In the case of `CCN1C(=O)C=CC1=O` [NEM, N-ethylmaleimide], the “reduction of KCC1-induced 86Rb+ uptake” value (1 mM NEM, hypotonic) is reported as 55%, the “fold activation of KCC1” value (1 mM NEM, isotonic) is reported as 2.6 fold and the “86Rb+ uptake in NEM-treated group” value (KCC1, 1 mM NEM, isotonic) is reported as 319±76 pmol×oocyte^−1×hour^−1.

With `[K+]` [Potassium] the Hill coefficient (KCC1) was 1.04±0.13, the “apparent Vmax for extracellular ion” value [1] was 39,540±2,199 pmol×oocyte^−1×hour^−1 and the Km [2] was 25.5 ± 3.2 mM. For the same molecule, the Km (KCC1, read-out: Potassium Km) was 25.5 mM.

With `CCCCNc1cc(C(=O)O)cc(S(N)(=O)=O)c1Oc1ccccc1` [bumetanide] the “KCC1 function (86Rb+ uptake, % of control)” value [3] was 51±12%, the “KCC1 function (86Rb+ uptake, % of control)” value [4] was 19±7% and the IC50 (KCC1, 10 mM extracellular K+, read-out: apparent half-maximal inhibition (K=0.5) of Cl−-dependent 86Rb+ uptake) was ~180 µM.

`COC[C@@H]([C@H](O)[C@H](O)C(=O)NCC[C@H](C)c1nc(/C=C/C[C@@H]2O[C@]3(C[C@@H](O)[C@@H]2C)O[C@H]([C@H](C[C@H](O)[C@H](C)[C@H](O)[C@H](C)/C=C(C)/C(C)=C/C=C/C(C)=C\C#N)OC)[C@H](OP(=O)(O)O)C3(C)C)co1)N(C)C` [calyculin A] was tested, and the “effect on activation of KCC1 by cell swelling” value (“effect on activation of KCC1” for short) (hypotonic) was “completely prevents the activation”.

With `CC1(C)C(C=C(Cl)Cl)C1C(=O)OC(C#N)c1cccc(Oc2ccccc2)c1` (centres unmarked) [cypermethrin] the “effect on activation of KCC1” value (hypotonic) was “neither okadaic acid, nor cypermethrin prevented this activation”.

`NS(=O)(=O)c1cc(C(=O)O)c(NCc2ccco2)cc1Cl` [furosemide] was tested, and the “KCC1 function (86Rb+ uptake, % of control)” value [3] was 9±2% and the “KCC1 function (86Rb+ uptake, % of control)” value [4] was 18±8%.

`C=C1[C@@H](O)[C@@H]2O[C@]3(CC[C@H](/C=C/[C@@H](C)[C@@H]4CC(C)=C[C@@]5(O[C@H](C[C@@](C)(O)C(=O)O)CC[C@H]5O)O4)O3)CC[C@H]2O[C@@H]1[C@@H](O)C[C@H](C)[C@H]1O[C@@]2(CCCCO2)CC[C@H]1C` [okadaic acid] was tested, and the “effect on activation of KCC1” value (hypotonic) was “neither okadaic acid, nor cypermethrin prevented this activation”.

With `NS(=O)(=O)c1cc2c(cc1Cl)NC(C(Cl)Cl)NS2(=O)=O` (centres unmarked) [trichlormethiazide] the “KCC1 function (86Rb+ uptake, % of control)” value [3] was 64±4% and the “KCC1 function (86Rb+ uptake, % of control)” value [4] was 74±8%.

HgCl2 [Hg—Cl2] was tested, and the “response of KCC1 to mercury” value (50 μM HgCl2, hypotonic) was “resistant”.
